The values below come from publication PMC3776838, “Detection of Phospho-Sites Generated by Protein Kinase CK2 in CFTR: Mechanistic Aspects of Thr1471 Phosphorylation” (PLoS ONE, 2013).

The structures appear in SMILES notation. Entries after “also recorded” stand apart in the source; their conditions may differ.

One assay relates to CFTR T1471A. The experiment in a line: De novo synthesized CFTR level after CHX wash-out with CK2 inhibitor, T1471A. It is filed as cell-based, human. To be noted: BHK cells; 2 h CHX 100 µg/mL, washed, then 2 µM CX4945 for 2, 4, 8 h; Western blot; vs vehicle; Figure 5B. As to the method:
(§1) Baby hamster kidney cells (BHK) stably expressing human CFTR (hCFTR) either wild type (WT), or Phe508del, or WT T1471A were growth to reach 70–80% confluency. After 2 h-long treatment with 100 µg/mL cyclohexamide, cells were washed with PBS and incubated with 2 µM CX4945 or its vehicle for the indicated time. At each time-point cells were washed with ice-cold PBS, scraped from the plates, pelleted by centrifugation (1200 g for 5 min at room tempertaure) and lysed in a buffer containing 1% (v/v) Nonidet P40, 50 mM Tris/HCl (pH 7.5) and 150 mM NaCl with fresh protease inhibitor tablets (Roche), 1 µM Okadaic acid (Alexis) and phosphatases inhibitors cocktails 2 and 3 (Sigma). Cells were lysed by incubation on ice for 30 min and then the lysates were cleared by centrifugation at 17000 g for 30 min at 4°C. The supernatant was collected and subjected to protein concentration quantification.
(§2) Western blot analysis was performed as described in [14] using a modified Laemmli buffer containing 105 mM dithiothreitol (final concentration) to enhance the solubilization of CFTR. […] Immunoblots were developed by enhanced chemiluminescence, detected on Kodak Image Station 440 cf and analyzed by the Kodak 1D image software. […]

The next assay concerns CK2. More on the design: method as in PMID 21870818. The following applies: ref [43]; cited from earlier work.
The next assay has as its system Phe508delCFTR. The experiment in a line: De novo synthesized CFTR level after CHX wash-out with CK2 inhibitor, Phe508del. It is filed as cell-based, human. To be noted: BHK cells, washed; for effect on de novo synthesis / accumulation of Phe508delCFTR: 2 h CHX 100 µg/mL, then 2 µM CX4945 for 2, 4, 8 h, Western blot, vs vehicle, Figure 5C. The method, then:
as §1
Western blot analysis was performed as described in [14] using a modified Laemmli buffer containing 105 mM dithiothreitol (final concentration) to enhance the solubilization of CFTR. 20–30 µg of total proteins were separated on 4–12% precast NuPage® Bis-Tris gradient gels (Invitrogen) according to the manufacturer’s instructions and transferred on to Optitran BA-S 83 nitrocellulose membranes (Whatman) with a semi-dry blotter (Biometra) for 1 h at 150 mA. Membranes were saturated for 1 h with 5% skimmed milk in Tris-buffered saline (TBS) containing 0.2% Tween 20. Immunoblots were developed by enhanced chemiluminescence, detected on Kodak Image Station 440 cf and analyzed by the Kodak 1D image software. […]
In order to evaluate the efficacy of CX4945 on the level of de novo synthesized CFTR, protein synthesis was inhibited by two hours cell treatment with cycloheximide (CHX). Blockade was then removed by washing off CHX and newly synthesized CFTR was quantified after 2, 4, and 8 hrs incubation either in the absence or presence of CX4945. […] This point has been corroborated by performing the experiment in triplicate and drawing from it quantification of Phe508delCFTR band B, as reported in Panel D.
Background: Immunoblotting shows a protein as a band on a membrane.

Another assay relates to CFTR wild type. The experiment in a line: De novo synthesized CFTR level after CHX wash-out with CK2 inhibitor, wild type. The following applies: BHK cells, 2 h CHX 100 µg/mL, washed, then 2 µM CX4945 for 2, 4, 8 h, Western blot, vs vehicle, Figure 5A. It is filed as cell-based, human. As to the method:
as §1, §2

Regarding `O=C(O)c1ccc2c(c1)nc(Nc1cccc(Cl)c1)c1ccncc12` [CX4945], the “effect on de novo synthesis of CFTR T1471A” value in the assay with CFTR T1471A is “a similar effect of CX4945 being also detectable; also recorded: a similar effect of CX4945 was observed with CFTR wild type and its T1471A mutant”. For the same compound, the “selectivity for CK2” value in the assay with CK2 is “the most selective CK2 inhibitor available to date”. In addition, the “effect on de novo synthesis / accumulation of Phe508delCFTR” value in the assay on Phe508delCFTR is “the efficacy of inhibiting CK2 is enhanced”; in the assay on Phe508delCFTR (listed as CX-4945) it was “definitely more pronounced in the case of Phe508delCFTR”. Further, the “increment of Phe508delCFTR band B” value in the assay with Phe508delCFTR (2 h CHX, then 2 µM CX4945 vs vehicle, Western blot quantitation, experiments in triplicate, Figure 5D) was “two to three”. In addition, the “effect on de novo synthesis / accumulation of CFTR wild type” value was “accumulates more abundantly than in the absence of CK2 inhibitor; also recorded: de novo synthesis of CFTR wild type is significantly stimulated” in the assay with CFTR wild type and “the re-appearance of CFTR reached higher levels” with CFTR wild type (listed as CX-4945).
